Patent US8735364B2, “Antisense modulation of apolipoprotein B expression” (Genzyme Corporation, priority 2001, dated 2014)
Oligonucleotides are written 5' to 3', each unit as a sugar letter and its base; * is a phosphorothioate linkage, no mark a phosphodiester; rarer units and linkages stand in square brackets, end groups in braces. Plain capitals give the bases only. e = 2'-O-(2-methoxyethyl) (MOE); [5mC] = 5-methylcytosine; d = 2'-deoxy (DNA)

The substances below were run on human apolipoprotein B mRNA (assay: Inhibition of human apolipoprotein B mRNA levels in HepG2 cells, quantitative real-time PCR). Details: 50 nM.
Assay type: cell-based
Design: %INHIB of human apolipoprotein B mRNA levels: concentration or dose not given beside the values
Protocol: The human hepatoblastoma cell line HepG2 was obtained from the American Type Culture Collection (Manassas, Va.). HepG2 cells were routinely cultured in Eagle's MEM supplemented with 10% fetal calf serum, non-essential amino acids, and 1 mM sodium pyruvate (Gibco/Life Technologies, Gaithersburg, Md.). Cells were routinely passaged by trypsinization and dilution when they reached 90% confluence. Cells were seeded into 96-well plates (Falcon-Primaria #3872) at a density of 7000 cells/well for use in RT-PCR analysis.
(§1) When cells reached 80% confluency, they were treated with oligonucleotide. For cells grown in 96-well plates, wells were washed once with 200 μL OPTI-MEM™-1 reduced-serum medium (Gibco BRL) and then treated with 130 μL of OPTI-MEM™-1 containing 3.75 μg/mL LIPOFECTIN™ (Gibco BRL) and the desired concentration of oligonucleotide. After 4-7 hours of treatment, the medium was replaced with fresh medium. Cells were harvested 16-24 hours after oligonucleotide treatment.
(§2) Quantitation of apolipoprotein B mRNA levels was determined by real-time quantitative PCR using the ABI PRISM™ 7700 Sequence Detection System (PE-Applied Biosystems, Foster City, Calif.) according to manufacturer's instructions. This is a closed-tube, non-gel-based, fluorescence detection system which allows high-throughput quantitation of polymerase chain reaction (PCR) products in real-time. As opposed to standard PCR, in which amplification products are quantitated after the PCR is completed, products in real-time quantitative PCR are quantitated as they accumulate. This is accomplished by including in the PCR reaction an oligonucleotide probe that anneals specifically between the forward and reverse PCR primers, and contains two fluorescent dyes. A reporter dye (e.g., JOE, FAM, or VIC, obtained from either Operon Technologies Inc., Alameda, Calif. or PE-Applied Biosystems, Foster City, Calif.) is attached to the 5′ end of the probe and a quencher dye (e.g., TAMRA, obtained from either Operon Technologies Inc., Alameda, Calif. or PE-Applied Biosystems, Foster City, Calif.) is attached to the 3′ end of the probe. When the probe and dyes are intact, reporter dye emission is quenched by the proximity of the 3′ quencher dye. During amplification, annealing of the probe to the target sequence creates a substrate that can be cleaved by the 5′-exonuclease activity of Taq polymerase. […] With each cycle, additional reporter dye molecules are cleaved from their respective probes, and the fluorescence intensity is monitored at regular intervals by laser optics built into the ABI PRISM™ 7700 Sequence Detection System. In each assay, a series of parallel reactions containing serial dilutions of mRNA from untreated control samples generates a standard curve that is used to quantitate the percent inhibition after antisense oligonucleotide treatment of test samples.
(§3) PCR reagents were obtained from PE-Applied Biosystems, Foster City, Calif. RT-PCR reactions were carried out by adding 25 μL PCR cocktail (1× TAQMAN™ buffer A, 5.5 mM MgCl2, 300 μM each of DATP, dCTP and dGTP, 600 μM of dUTP, 100 nM each of forward primer, reverse primer, and probe, 20 Units RNAse inhibitor, 1.25 Units AMPLITAQ GOLD™, and 12.5 Units MuLV reverse transcriptase) to 96 well plates containing 25 μL total RNA solution. The RT reaction was carried out by incubation for 30 minutes at 48° C. Following a 10 minute incubation at 95° C. to activate the AMPLITAQ GOLD™, 40 cycles of a two-step PCR protocol were carried out: 95° C. for 15 seconds (denaturation) followed by 60° C. for 1.5 minutes (annealing/extension).
(§4) Gene target quantities obtained by real time RT-PCR are normalized using either the expression level of GAPDH, a gene whose expression is constant, or by quantifying total RNA using RiboGreen™ (Molecular Probes, Inc. Eugene, Oreg.). GAPDH expression is quantified by real time RT-PCR, by being run simultaneously with the target, multiplexing, or separately. […]

| Substance | Percent Inhibition of human apolipoprotein B mRNA levels [%] |
| --- | --- |
| 147788 (antisense eT*eT*eT*e[5mC]*eT*dG*dT*dT*dG*d[5mC]*d[5mC]*dA*d[5mC]*dA*dT*eT*eG*e[5mC]*e[5mC]*e[5mC]) [compound 147788] | 54 |

Same assay, conditions: 150 nM

| Substance | Percent Inhibition of human apolipoprotein B mRNA levels [%] |
| --- | --- |
| 147788 (antisense eT*eT*eT*e[5mC]*eT*dG*dT*dT*dG*d[5mC]*d[5mC]*dA*d[5mC]*dA*dT*eT*eG*e[5mC]*e[5mC]*e[5mC]) [compound 147788] | 63 |

Same assay, conditions: 250 nM

| Substance | Percent Inhibition of human apolipoprotein B mRNA levels [%] |
| --- | --- |
| 147788 (antisense eT*eT*eT*e[5mC]*eT*dG*dT*dT*dG*d[5mC]*d[5mC]*dA*d[5mC]*dA*dT*eT*eG*e[5mC]*e[5mC]*e[5mC]) [compound 147788] | 72 |

Same assay, conditions: averages from two experiments

| Substance | %INHIB of human apolipoprotein B mRNA levels [%] |
| --- | --- |
| 147815 (antisense eT*eG*eG*e[5mC]*e[5mC]*dT*dA*d[5mC]*d[5mC]*dA*dG*dA*dG*dA*d[5mC]*eA*eG*eG*eT*eA) [compound 147815] | 45 |
| 147814 (antisense e[5mC]*e[5mC]*e[5mC]*eA*eA*dT*dA*dA*dG*dA*dT*dT*dT*dA*dT*eA*eA*e[5mC]*eA*eA) [compound 147814] | 34 |
| 147781 (antisense eA*e[5mC]*e[5mC]*eG*eA*dG*dA*dA*dG*dG*dG*d[5mC]*dA*d[5mC]*dT*e[5mC]*eA*eG*e[5mC]*e[5mC]) [compound 147781] | 35 |
| 147786 (antisense e[5mC]*eT*eT*eG*eA*dA*dT*d[5mC]*dA*dG*d[5mC]*dA*dG*dT*d[5mC]*e[5mC]*e[5mC]*eA*eG*eG) [compound 147786] | 34 |
| 147794 (antisense eG*eT*eA*eA*eT*d[5mC]*dT*dT*d[5mC]*dA*dT*d[5mC]*d[5mC]*d[5mC]*d[5mC]*eA*eG*eT*eG*e[5mC]) [compound 147794] | 47 |
| 147827 (antisense e[5mC]*eT*eA*eA*eT*dG*dG*d[5mC]*d[5mC]*d[5mC]*d[5mC]*dT*dT*dG*dA*eT*eA*eA*eA*e[5mC]) [compound 147827] | 13 |
| 147828 (antisense eA*e[5mC]*eG*eT*eT*dA*dT*d[5mC]*d[5mC]*dT*dT*dG*dA*dG*dT*e[5mC]*e[5mC]*e[5mC]*eT*eG) [compound 147828] | 12 |
| 147825 (antisense eA*eG*eA*eA*eG*d[5mC]*dT*dG*d[5mC]*d[5mC]*dT*d[5mC]*dT*dT*d[5mC]*eT*eT*e[5mC]*e[5mC]*e[5mC]) [compound 147825] | 72 |
| 147831 (antisense e[5mC]*eT*eG*e[5mC]*e[5mC]*dT*dA*d[5mC]*dT*dG*d[5mC]*dA*dA*dG*dG*e[5mC]*eT*eG*eG*e[5mC]) [compound 147831] | 0 |
| 147833 (antisense eA*eT*eG*eA*eT*dA*d[5mC]*dA*d[5mC]*dA*dA*dT*dA*dA*dA*eG*eA*e[5mC]*eT*e[5mC]) [compound 147833] | 25 |
| 147826 (antisense eT*e[5mC]*eA*eG*eG*dG*dT*dG*dA*dG*d[5mC]*d[5mC]*d[5mC]*dT*dG*eT*eG*eT*eG*eT) [compound 147826] | 80 |
| 147790 (antisense eT*eG*eT*eG*e[5mC]*dT*dA*d[5mC]*d[5mC]*dA*dT*d[5mC]*d[5mC]*d[5mC]*dA*eT*eA*e[5mC]*eT*eT) [compound 147790] | 33 |
| 147784 (antisense e[5mC]*eA*eG*e[5mC]*eG*d[5mC]*d[5mC]*dA*dG*d[5mC]*dA*dG*d[5mC]*dG*d[5mC]*e[5mC]*eA*eG*e[5mC]*eA) [compound 147784] | 70 |
| 147788 (antisense eT*eT*eT*e[5mC]*eT*dG*dT*dT*dG*d[5mC]*d[5mC]*dA*d[5mC]*dA*dT*eT*eG*e[5mC]*e[5mC]*e[5mC]) [compound 147788] | 95 |
| 147810 (antisense eA*eT*eT*eT*e[5mC]*dA*dG*d[5mC]*dA*dT*dA*dT*dG*dA*dG*e[5mC]*e[5mC]*e[5mC]*eA*eT) [compound 147810] | 0 |
| 147780 (antisense e[5mC]*e[5mC]*eG*e[5mC]*eA*dG*dG*dT*d[5mC]*d[5mC]*d[5mC]*dG*dG*dT*dG*eG*eG*eA*eA*eT) [compound 147780] | 40 |
| 147801 (antisense e[5mC]*eA*eG*eA*e[5mC]*d[5mC]*d[5mC]*dG*dA*d[5mC]*dT*d[5mC]*dG*dT*dG*eG*eA*eA*eG*eA) [compound 147801] | 38 |
| 147792 (antisense eG*eG*eA*e[5mC]*eA*d[5mC]*d[5mC]*dT*d[5mC]*dA*dA*dT*d[5mC]*dA*dG*e[5mC]*eT*eG*eT*eG) [compound 147792] | 26 |
| 147796 (antisense eG*e[5mC]*eA*eG*e[5mC]*d[5mC]*dA*dG*dT*d[5mC]*dG*d[5mC]*dT*dT*dA*eT*e[5mC]*eT*e[5mC]*e[5mC]) [compound 147796] | 8 |
| 147809 (antisense e[5mC]*e[5mC]*e[5mC]*eA*eG*dT*dG*dA*dT*dA*dG*d[5mC]*dT*d[5mC]*dT*eG*eT*eG*eA*eG) [compound 147809] | 60 |

These substances were tested on mouse apolipoprotein B mRNA (assay: Inhibition of mouse apolipoprotein B mRNA levels in primary hepatocytes, quantitative real-time PCR). Details: 50 nM.
Assay type: cell-based
Design: %INHIB of mouse apolipoprotein B mRNA levels: concentration or dose not given beside the values
Protocol: Primary mouse hepatocytes were prepared from CD-1 mice purchased from Charles River Labs (Wilmington, Mass.) and were routinely cultured in Hepatoyte Attachment Media (Gibco) supplemented with 10% Fetal Bovine Serum (Gibco/Life Technologies, Gaithersburg, Md.), 250 nM dexamethasone (Sigma), and 10 nM bovine insulin (Sigma). Cells were seeded into 96-well plates (Falcon-Primaria #3872) at a density of 10000 cells/well for use in RT-PCR analysis.
as §1, §2, §3
as §4, with “separately. Total RNA is quantified using RiboGreen™ RNA quantification reagent from Molecular Probes.” for “separately.”

| Substance | Percent Inhibition of mouse apolipoprotein B mRNA levels [%] |
| --- | --- |
| 147483 (antisense eA*eT*eG*eT*e[5mC]*dA*dA*dT*dG*d[5mC]*d[5mC]*dA*d[5mC]*dA*dT*eG*eT*e[5mC]*e[5mC]*eA) [compound 147483] | 56 |

Same assay, conditions: 150 nM

| Substance | Percent Inhibition of mouse apolipoprotein B mRNA levels [%] |
| --- | --- |
| 147483 (antisense eA*eT*eG*eT*e[5mC]*dA*dA*dT*dG*d[5mC]*d[5mC]*dA*d[5mC]*dA*dT*eG*eT*e[5mC]*e[5mC]*eA) [compound 147483] | 88 |

Same assay, conditions: 300 nM

| Substance | Percent Inhibition of mouse apolipoprotein B mRNA levels [%] |
| --- | --- |
| 147483 (antisense eA*eT*eG*eT*e[5mC]*dA*dA*dT*dG*d[5mC]*d[5mC]*dA*d[5mC]*dA*dT*eG*eT*e[5mC]*e[5mC]*eA) [compound 147483] | 89 |

Same assay, conditions: averages from two experiments

| Substance | %INHIB of mouse apolipoprotein B mRNA levels [%] |
| --- | --- |
| 147503 (antisense eA*eA*eT*eG*eG*dA*dT*dG*dA*dT*dG*dA*dA*dA*d[5mC]*eA*eG*eT*eG*eG) [compound 147503] | 26 |
| 147475 (antisense eA*eT*eT*eG*eT*dA*dT*dG*dT*dG*dA*dG*dA*dG*dG*eT*eG*eA*eG*eG) [compound 147475] | 79 |
| 147495 (antisense eG*eT*eT*eA*eG*dG*dA*d[5mC]*d[5mC]*dA*dG*dG*dG*dA*dT*eT*eG*eT*eG*eA) [compound 147495] | 0 |
| 147493 (antisense eG*e[5mC]*eT*eT*e[5mC]*dA*dT*dT*dA*dT*dA*dG*dG*dA*dG*eG*eT*eG*eG*eT) [compound 147493] | 41 |
| 147481 (antisense eT*eG*eA*e[5mC]*eT*dG*dT*d[5mC]*dA*dA*dG*dG*dG*dT*dG*eA*eG*e[5mC]*eT*eG) [compound 147481] | 24 |
| 147771 (antisense eG*eG*eT*eA*eA*dA*dG*dT*dT*dG*d[5mC]*d[5mC]*d[5mC]*dA*dT*eG*eG*e[5mC]*eT*eG) [compound 147771] | 68 |
| 147485 (antisense eA*eT*eT*eT*eG*dG*dG*dA*d[5mC]*dG*dA*dA*dT*dG*dT*eA*eT*eG*e[5mC]*e[5mC]) [compound 147485] | 64 |
| 147778 (antisense eT*e[5mC]*eA*eG*eA*dT*dA*dT*dA*d[5mC]*dA*dT*dT*dG*dG*e[5mC]*eT*eT*e[5mC]*eA) [compound 147778] | 14 |
| 147478 (antisense eT*e[5mC]*e[5mC]*eA*eG*dG*dA*dA*dT*dT*dG*dA*dG*d[5mC]*dT*eT*eG*eT*eG*e[5mC]) [compound 147478] | 78 |
